Source: ChEMBL document CHEMBL1165968, “IKKbeta inhibitors identification part II: ligand and structure-based virtual screening” (Bioorg Med Chem, 2010)

Tests used:
[1] = target: T1, Inhibitor of nuclear factor kappa-B kinase subunit beta (Homo sapiens, UniProt O14920); assay: Inhibition of IKK-beta by TR-FRET assay
T1 sequence (O14920 whole entry): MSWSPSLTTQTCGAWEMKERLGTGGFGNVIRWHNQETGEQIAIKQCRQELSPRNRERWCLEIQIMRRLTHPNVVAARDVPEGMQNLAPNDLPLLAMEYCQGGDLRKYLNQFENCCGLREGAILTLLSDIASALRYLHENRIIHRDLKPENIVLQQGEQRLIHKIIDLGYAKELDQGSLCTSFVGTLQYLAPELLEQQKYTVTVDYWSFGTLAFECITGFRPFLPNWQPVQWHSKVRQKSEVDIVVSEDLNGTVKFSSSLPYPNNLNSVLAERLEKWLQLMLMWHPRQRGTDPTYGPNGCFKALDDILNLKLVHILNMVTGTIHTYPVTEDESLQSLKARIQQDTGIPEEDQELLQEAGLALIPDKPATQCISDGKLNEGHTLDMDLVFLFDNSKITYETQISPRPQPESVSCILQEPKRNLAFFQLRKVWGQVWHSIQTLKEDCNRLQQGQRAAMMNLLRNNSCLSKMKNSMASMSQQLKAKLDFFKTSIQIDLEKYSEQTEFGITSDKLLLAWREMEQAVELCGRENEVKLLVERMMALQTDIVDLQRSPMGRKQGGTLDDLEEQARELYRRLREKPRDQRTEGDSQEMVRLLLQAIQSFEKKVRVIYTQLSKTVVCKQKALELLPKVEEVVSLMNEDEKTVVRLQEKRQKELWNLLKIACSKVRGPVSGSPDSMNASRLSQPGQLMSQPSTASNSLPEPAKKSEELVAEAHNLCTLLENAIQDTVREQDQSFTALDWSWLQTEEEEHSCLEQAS

[2] = target: T2, Inhibitor of nuclear factor kappa-B kinase subunit beta (Homo sapiens) (UniProt O14920); assay: Inhibition of IKK-beta at 10 uM by TR-FRET assay
T2 sequence (whole entry): T1 sequence (O14920 whole entry)

| IC50 [1] | inhibition [2] | SMILES |
| --- | --- | --- |
| 6.98 µM | 76.4% | COc1cc(/C=N/NC(=O)Cc2nnc(NC(=O)c3ccc([N+](=O)[O-])cc3)s2)ccc1O |
| 6.7 µM | 84.8% | CC1=NN(c2ccc(S(N)(=O)=O)cc2)C(=O)/C1=C/c1ccc(-c2ccc3c(c2)C(=O)NC3=O)o1 |

The remaining lines, values behind:

| SMILES | IC50 [1] | inhibition [2] |
| --- | --- | --- |
| Cc1cc(N2CCC(O)CC2)nc2sc(C(N)=O)c(N)c12 | < 1 µM | – |
| N#Cc1c(C2CCCNC2)cc(-c2ccccc2O)nc1N (stereo not drawn) | 0.174 µM | – |
| COc1ccc(C(=O)Nc2nnc(CC(=O)N/N=C/c3ccc(O)c(OC)c3)s2)cc1 | 10.8 µM | 53.1% |
